PubChem BioAssay (NCI)
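Cells were grown in 96-well plates and exposed to each compound for 48 hours at five concentrations; endpoints were interpolated linearly between bracketing concentrations, or set to the highest concentration if not reached. TGI: total growth inhibition.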

Tests used:
Assay in all cases: inhibition of tumour cell growth, NCI panel, 48 h
M19-MEL melanoma = system: M19-MEL melanoma
OVCAR-3 ovarian = system: OVCAR-3 ovarian
HCT-116 colon = system: HCT-116 colon
MDA-N = system: MDA-N
EKVX NSCLC = system: EKVX NSCLC
NCI/ADR-RES ovarian = system: NCI/ADR-RES ovarian
HS 578T breast = system: HS 578T breast
XF 498 CNS = system: XF 498 CNS
HCC-2998 colon = system: HCC-2998 colon
HCT-15 colon = system: HCT-15 colon
LXFL 529 NSCLC = system: LXFL 529 NSCLC
SK-MEL-28 melanoma = system: SK-MEL-28 melanoma
MDA-MB-435 = system: MDA-MB-435
NCI-H23 lung = system: NCI-H23 lung
UO-31 renal = system: UO-31 renal
SK-MEL-2 melanoma = system: SK-MEL-2 melanoma
RPMI-8226 leukemia = system: RPMI-8226 leukemia
SK-OV-3 ovarian = system: SK-OV-3 ovarian
OVCAR-4 ovarian = system: OVCAR-4 ovarian
786-0 renal = system: 786-0 renal
UACC-257 melanoma = system: UACC-257 melanoma
SW-620 colon = system: SW-620 colon
HL-60(TB) leukemia = system: HL-60(TB) leukemia
K-562 leukemia = system: K-562 leukemia
SF-268 CNS = system: SF-268 CNS
KM12 colon = system: KM12 colon
NCI-H460 lung = system: NCI-H460 lung
CAKI-1 renal = system: CAKI-1 renal
HOP-62 NSCLC = system: HOP-62 NSCLC
MOLT-4 leukemia = system: MOLT-4 leukemia
RXF 393 renal = system: RXF 393 renal
DMS 273 small cell lung = system: DMS 273 small cell lung
T-47D breast = system: T-47D breast
SK-MEL-5 melanoma = system: SK-MEL-5 melanoma
U251 CNS = system: U251 CNS
SF-295 CNS = system: SF-295 CNS
HT29 colon = system: HT29 colon
DMS 114 small cell lung = system: DMS 114 small cell lung
OVCAR-5 ovarian = system: OVCAR-5 ovarian
CCRF-CEM leukemia = system: CCRF-CEM leukemia
A549 NSCLC = system: A549 NSCLC
M14 melanoma = system: M14 melanoma
SNB-78 CNS = system: SNB-78 CNS
SN12C renal = system: SN12C renal
HOP-18 NSCLC = system: HOP-18 NSCLC
DU-145 prostate = system: DU-145 prostate
SF-539 CNS = system: SF-539 CNS
SNB-19 CNS = system: SNB-19 CNS
MALME-3M melanoma = system: MALME-3M melanoma
NCI-H226 lung = system: NCI-H226 lung
MCF7 breast = system: MCF7 breast
HOP-92 NSCLC = system: HOP-92 NSCLC
MDA-MB-231 breast = system: MDA-MB-231 breast
TK-10 renal = system: TK-10 renal
COLO 205 colon = system: COLO 205 colon
DLD-1 colon = system: DLD-1 colon
OVCAR-8 ovarian = system: OVCAR-8 ovarian
ACHN renal = system: ACHN renal
BT-549 breast = system: BT-549 breast
IGROV1 ovarian = system: IGROV1 ovarian
SNB-75 CNS = system: SNB-75 CNS

c1ccc(SCCP(CCP(c2ccccc2)c2ccccc2)c2ccccc2)cc1 (stereo unspecified)
TGI (M19-MEL melanoma): > 100 µM
TGI (OVCAR-3 ovarian): 39.9 µM
TGI (HCT-116 colon): > 24.3 µM
TGI (MDA-N): > 100 µM
TGI (EKVX NSCLC): > 67.5 µM
TGI (NCI/ADR-RES ovarian): > 100 µM
TGI (HS 578T breast): > 100 µM
TGI (XF 498 CNS): 8.15 µM
TGI (HCC-2998 colon): > 100 µM
TGI (HCT-15 colon): > 100 µM
TGI (LXFL 529 NSCLC): 23.3 µM
TGI (SK-MEL-28 melanoma): > 100 µM
TGI (MDA-MB-435): > 100 µM
TGI (NCI-H23 lung): > 54.1 µM
TGI (UO-31 renal): 53.9 µM
TGI (SK-MEL-2 melanoma): 7.52 µM
TGI (RPMI-8226 leukemia): > 66.3 µM
TGI (SK-OV-3 ovarian): > 100 µM
TGI (OVCAR-4 ovarian): 97.1 µM
TGI (786-0 renal): > 100 µM
TGI (UACC-257 melanoma): > 74.7 µM
TGI (SW-620 colon): > 100 µM
TGI (HL-60(TB) leukemia): > 22.2 µM
TGI (K-562 leukemia): > 100 µM
TGI (SF-268 CNS): > 100 µM
TGI (KM12 colon): > 51 µM
TGI (NCI-H460 lung): > 100 µM
TGI (CAKI-1 renal): 63.3 µM
TGI (HOP-62 NSCLC): > 100 µM
TGI (MOLT-4 leukemia): 81.5 µM
TGI (RXF 393 renal): > 100 µM
TGI (DMS 273 small cell lung): 13.6 µM
TGI (T-47D breast): 79.1 µM
TGI (SK-MEL-5 melanoma): 33.8 µM
TGI (U251 CNS): > 100 µM
TGI (SF-295 CNS): > 100 µM
TGI (HT29 colon): > 100 µM
TGI (DMS 114 small cell lung): 33.2 µM
TGI (OVCAR-5 ovarian): > 100 µM
TGI (CCRF-CEM leukemia): > 100 µM
TGI (A549 NSCLC): > 100 µM
TGI (M14 melanoma): 43.5 µM
TGI (SNB-78 CNS): > 100 µM
TGI (SN12C renal): > 88.6 µM
TGI (HOP-18 NSCLC): 14 µM
TGI (DU-145 prostate): > 100 µM
TGI (SF-539 CNS): > 100 µM
TGI (SNB-19 CNS): > 100 µM
TGI (MALME-3M melanoma): > 59.1 µM
TGI (NCI-H226 lung): > 87.6 µM
TGI (MCF7 breast): > 100 µM
TGI (HOP-92 NSCLC): 15.1 µM
TGI (MDA-MB-231 breast): > 100 µM
TGI (TK-10 renal): > 100 µM
TGI (COLO 205 colon): 15.8 µM
TGI (DLD-1 colon): > 100 µM
TGI (OVCAR-8 ovarian): > 100 µM
TGI (ACHN renal): > 76 µM
TGI (BT-549 breast): 68.7 µM
TGI (IGROV1 ovarian): > 100 µM
TGI (SNB-75 CNS): > 19.6 µM
